Test results from a melting point compilation (Tetko et al.; mined from patent text by program, amines drawn as free bases though some values may be those of a salt).

Row | melting point [°C] | Compound
1 | 190 to 193 | CC(C)(C)NS(=O)(=O)c1ccccc1-c1ccc(NC(=O)C(C)(C)Nc2cccc(C#N)c2)cc1
2 | 42 to 43 | COc1ccc(N2C3CCC(C(=O)C3)C2c2ccc(Cl)cc2)cc1OC (configuration not stated)
3 | 124 to 125 | CCCCCCCCC1OC(=O)c2cc(N)ccc21 (configuration not stated)
4 | 97 to 99 | CC(C)CNc1c([N+](=O)[O-])cnc2cccnc12
5 | 83 to 83.5 | CNC(=O)C1CCCCN1C(=O)OC(C)(C)C (configuration not stated)
6 | 76 to 79 | COc1ccc(C(=O)Cc2cc(OC)ccc2OC)c(Br)c1
7 | 97 to 99 | O=C1N(Cc2cnc(N3CCOCC3)s2)c2ccccc2C12COc1cc3c(cc12)OCO3 (configuration not stated)
8 | 278 | Nc1nc(/C=C/c2ccc([N+](=O)[O-])cc2)cs1
9 | 135 to 136 | CC1OC(C)(C)c2cc(-c3ccc(C#N)n3C(=O)OC(C)(C)C)ccc2N1C(=O)OCC1c2ccccc2-c2ccccc21 (configuration not stated)
10 | 177 to 178 | COC(=O)c1ccc(Cc2c(C(=O)OC)n(-c3ccccc3)c3nc(C)ccc3c2=O)cn1
11 | 173 to 175 | CCCS(=O)(=O)CC(=O)NNC(=O)N1Cc2ccccc2Oc2ccc(Cl)cc21
12 | 130 to 131 | Cc1nn(-c2ccc(C(F)(F)F)cn2)cc1COc1cc(C=O)n(C)n1
13 | 175 to 176 | CC(C)(C)Nc1nc2cc(CC(=O)O)ccc2o1
14 | 271 | O=C1c2ccccc2S(=O)(=O)c2c1cccc2-c1nnn[nH]1
15 | 78 to 81 | CC(C#N)c1ccc(O)c([N+](=O)[O-])c1 (configuration not stated)
16 | 160 to 163 | O=C1C(Cl)=C(N2CCN(C(=O)Nc3ccccc3Cl)CC2)C(=O)c2ccccc21
17 | 134 to 135 | O=C1OC2(CCCCC2)OC(=O)C12CC2
18 | 163 | CN(C)Cc1ccc(SC2CCN(C(c3ccccc3)(c3ccccc3)c3ccccc3)CC2)cc1
19 | 73 to 74 | OCC1=NOC(c2ccccc2)C1 (configuration not stated)
20 | 152 to 154 | CC(C)Oc1cc(-n2c(=O)[nH]c(CF)c(F)c2=O)c(F)cc1Cl
21 | 188 to 189 | CC(C)(C)c1cc(C(=O)NCc2ccc(N)cc2)cc(C(C)(C)C)c1O
22 | 25 | CCCCCOCCCCCCCCCCCCBr
23 | 280 | CC(C)(CO)NS(=O)(=O)c1cnc(NC(=O)c2cnn3c(C(F)F)cc(-c4ccc(C(F)(F)F)cc4)nc23)s1
24 | 96 to 97 | COCCNC(=O)c1cccc(-c2cccc3cc(Cc4cc(F)cc(F)c4)sc23)c1

Row | melting point [°C] | Compound
25 | 171 to 173 | O=C(CCc1ccccc1)NC(NC(=S)Nc1cccc([N+](=O)[O-])c1)C(Cl)(Cl)Cl (configuration not stated)
26 | 136 | CC=Cn1c(C(F)(F)F)nn(-c2c([N+](=O)[O-])cc(C(F)(F)F)cc2[N+](=O)[O-])c1=O
27 | 105 | COC1CCc2[nH]c3ccccc3c2C1 (configuration not stated)
28 | 125 to 127 | CCCCCc1c(C(C)O)nc(C(C)C)c(CO)c1-c1ccc(F)cc1 (configuration not stated)
29 | 43 to 46 | Cc1ccccc1-c1ccc2c(c1)CN(CCNC(=O)C1CCCC1)C(N)=N2
30 | 164 to 165 | O=C(CC1CCCCC1)NC1CCCCC1
31 | 186 to 188 | CCCc1nc2c(N)nc3cc(OCc4ccc(OC)cc4)ccc3c2n1CC(C)C
32 | 84 | CCOC(=O)COc1cc(OCc2ccccc2)ccc1C#N
33 | 204 | CC(=O)N[C@H]1CC[C@H](CCN2CCC(c3ccc(F)c4occc34)CC2)CC1
34 | 94 to 95 | COC(=O)c1cccc(F)c1O
35 | 82 to 83.5 | CCOC(=O)C(=CNc1nc(C)c(C)s1)C(=O)OCC
36 | 106 | Clc1ccc(-c2ncn(CCCN3CCOCC3)c2-c2ccncc2)cc1Cl
37 | 78 to 80 | CC(=C[N+](=O)[O-])NCCN(C)Cc1ccc(Cl)nc1
38 | 39 to 41 | CCOC(=O)COc1ccc2c(c1)CCCC2=O
39 | 178 to 180 | C#CCOc1ccc(C2=NC3=CCNC(=O)C3=N2)c(OC)c1
40 | 85 to 92 | COC(=O)CN1C(=O)c2ccccc2Nc2ccc(OCc3cccc4ccccc34)cc21
41 | 112 to 113 | CCN(CC)C(=O)n1cc(C(F)F)c(S(=O)(=O)c2cc(Cl)cc(Cl)c2)n1
42 | 260 to 262 | CC(C)C(=O)OC1c2nccnc2C(=O)N1c1ccc2ccc(Cl)nc2n1 (configuration not stated)
43 | 67 to 69 | CCOC(=O)C(C(=O)OCC)n1cccc1C(=O)C(Cl)(Cl)Cl
44 | 114 to 115 | Nc1ccc(OCc2cscn2)cc1
45 | 157 to 160 | COc1ccccc1-n1c(=O)[nH]c2c(C(N)=O)nc(NCCO)nc21
46 | 254 to 256 | Nc1cnc(-c2ccc(Br)cc2)c(Cl)n1
47 | > 300 | CCCc1nc(O)c(-c2ccc(C)cc2)c(O)n1
48 | 112 to 114 | CCCCCCCCCCCCCCCCCCC1CNc2cc(C(=O)O)ccc21 (racemic)

Row | melting point [°C] | Compound
49 | 140 to 141 | CC(=O)Nc1ccc(Sc2ccc(Cl)cc2)cc1
50 | 207 to 208 | Cc1coc(C)c1N(C)c1cc(Br)cc2c1nc(C)n2C
51 | 117 to 118 | O=C(NCCCCOc1ccc(-n2ccnc2)cc1)c1ccccc1
52 | 180 to 181 | CCCCc1ccc(C(=O)Nc2cc(CCCC)c(NC(=O)c3ccc(CCCC)cc3)c3c2C(=O)c2ccccc2C3=O)cc1
53 | 127 to 129 | CCCCCCCC(=O)NNC(=O)N1Cc2ccccc2Oc2ccc(Cl)cc21
54 | 191 to 193 | O=S1(=O)CCN2CCCC(c3ccc(Oc4ccc(C(F)(F)F)cc4)cc3)C2=N1 (configuration not stated)
55 | 294 to 296 | O=C(O)c1coc2ccc3ccc(O)cc3c2c1=O
56 | 182 to 184 | O=C(O)C(O)=CC(=O)c1cc(Cc2ccc(F)cc2)cn(Cc2ccccc2F)c1=O
57 | 84 | CCCCCC1COc2cc(CCC3=Cc4cc(F)cc(F)c4OC3)c(F)cc2C1 (configuration not stated)
58 | 84 to 85 | Cc1c(Cc2ccc(Cl)cc2)cccc1[N+](=O)[O-]
59 | 205 to 206 | CC(C)Oc1nc(SCc2cccc(C(F)(F)F)c2)nc2[nH]c(=O)cnc12
60 | 33 to 36 | CCOc1ccc(OC)c([N+](=O)[O-])c1
61 | 237 to 238 | Cc1c(C(=O)Nc2ccc(N3CCC(N4CCCCC4)CC3)c(C#N)c2)cnn1-c1ccc(F)cc1
62 | 98 to 99 | CCc1c(C(=O)c2cc(C)cc(C)c2)n(C/C=C\c2ccccc2)c(=O)[nH]c1=O
63 | 175 to 176 | COC(=O)c1cc2cnc(N3CCC[C@H]3CO)nc2n(Cc2ccc(OC)c(Cl)c2)c1=O
64 | 133 | CC1Cc2c(-c3ccccc3)[nH]c(-c3ccccc3)c2CC1C (configuration not stated)
65 | 292 to 295 | Cn1cc(C(=O)O)c(=O)c2c3cc(N4CCCC(C)(C)C4)c(F)cc3ncc21
66 | 153 to 154 | NC[C@H](O)c1ccc2nnnn2c1
67 | 151 to 152 | c1ccc2c(c1)CCN(Cc1n[nH]c3ccccc13)C2
68 | 108 to 110 | CCOC(=O)Nc1nc(C(=NOC)C(=O)OCC)ns1
69 | 80 | Cc1cn(C2OC(C)(CO)C(O)C2F)c(=O)[nH]c1=O (configuration not stated)
70 | 126 to 127 | CCOC(=O)c1ccc(NCCOc2ccc(Br)c3ccccc23)cc1
71 | 247 to 249 | Cn1c(-c2ccc(C(=N)N)cc2)nc2cc(C(=O)NCCC(=O)O)ccc21
72 | 126 to 128 | CCS(=O)(=O)N1CCSc2cccc(Cl)c2C1

Row | melting point [°C] | Compound
73 | 205 to 208 | Cc1nccn1-c1ccc(O)cc1
74 | 158 to 159 | CN(C(=O)Cn1c(-c2ccc(C(F)(F)F)cc2)nc2cccnc21)c1ccccc1
75 | 215 to 222 | O=C(O)CCc1cc2cc(Cl)ccc2n1S(=O)(=O)c1cccc2cccnc12
76 | 169 | Cc1c(NC(=O)c2ccc(OC[C@@H]3CCCO3)cc2)ccc2cc(CN3CCC(C)(O)CC3)[nH]c12
77 | 134 to 135 | CCOC=Nc1ccc2nnc(-c3ncc([N+](=O)[O-])n3C)n2n1
78 | 223 to 225 | NS(=O)(=O)c1cc2cccnc2s1
79 | 74 to 76 | COc1ccc(Cc2nc3cc(Cl)cc(CCO)c3o2)cc1OC1CCCC1
80 | 118 to 119 | CCOC(=O)c1cn(-c2ccccn2)cn1
81 | 82 to 84.5 | CCc1cc(CC)nc(S)n1
82 | 198 to 215 | Cc1ccc(C(=O)c2cccc(C(=O)O)c2)c(O)c1
83 | 47.5 to 49 | O=C1N(CCCCCl)CCN1c1ccccc1
84 | 181 to 183 | CCc1cc(Cl)cc2c1NC(C)NS2(=O)=O (configuration not stated)
85 | 165 | CC1(C)NC(=O)N(c2ccc(Oc3ccccc3)cc2)C1=O
86 | 66 to 68 | CCOP(=O)(OCC)C(CCc1cc(C)nc2c(Cl)c(-c3ccccc3)nn12)P(=O)(OCC)OCC
87 | 205 | CC(=O)Nc1nc2c(Oc3cc(-c4ccc(C(F)(F)F)cc4)ncn3)cccc2o1
88 | 98 to 100 | O=C(c1ccc2cnccc2n1)N1CCc2ccccc2C1
89 | 70 to 78 | CN(C)S(=O)(=O)Cc1ccccc1N
90 | 219 to 222 | CCn1cc(C(=O)O)c(=O)c2cc(F)c(N3CCN(c4ccccc4OC)CC3)c(OC(F)F)c21
91 | 114 to 116 | CCNC(=O)c1c(F)cccc1S(=O)C(C)(C)C (configuration not stated)
92 | 136 | COc1ccc(S(=O)(=O)N2CCC[C@H]2C(=O)N2CCN(C(=O)c3ccc(C=NN)cc3)CC2)c(OC)c1COc1cccc2c(C)cc(C)nc12
93 | 134 to 140 | CS(=O)(=O)Oc1cccc2c1C(=O)OC2=O
94 | 134 to 136 | O=C1c2ccccc2C(=O)N1C(Cc1ccccc1)C1CC(Cc2ccccc2)=NO1 (configuration not stated)

Row | Compound | melting point [°C]
95 | CC12C=CC(=O)C(N)=C1C=CC1C2CCC2(C)C(=O)CCC12 (configuration not stated) | 206 to 208
96 | CC(C)N(Cc1coc(-c2ncn3c2CN(C)C(=O)c2c(Cl)cccc2-3)n1)C(C)C | 164 to 166
97 | Cn1c([N+](=O)[O-])cnc1C(Cl)Cl | 52
98 | CN(CC(N)=O)C(=O)CCl | 85 to 86
99 | CC1(C)CCC(C)(C)c2cc(-c3cc(-c4ccc(CO)cc4)ccc3-c3ccccc3)ccc21 | 134 to 136
100 | Cc1nn(-c2ccc(C#N)c(Cl)c2)c(C)c1Oc1ccc(NC(=O)C(C)(C)C)cn1 | 191 to 192
101 | O=[N+]([O-])c1cc(F)c(N2CCNCC2)cc1Cl | 91.5
102 | COc1ccc(C(=O)Nc2ccccc2)c(CC2CCCCN2)c1 (configuration not stated) | 108 to 109
